Assay results: PMC8403366, “Functional significance of gain-of-function H19 lncRNA in skeletal muscle differentiation and anti-obesity effects” (Genome Medicine, 2021)

What was measured:
iPSC-SkMC = test: Immunoblot of DMD, phosphorylated DMD and Ub-DMD in iPSC-SkMC; format: cell-based, human; settings: for DMD phosphorylation / DMD protein levels / Ub-DMD: BMD iPSC-SkMC
Source text: The human skin fibroblasts GM09503 (healthy donor), GM02298 (BMD patient), or GM04569 (BMD patient) were obtained from the Coriell Institute and reprogramed to iPSC by Baylor Human Stem Cell Core. Clinical information is summarized in Additional file 2: Table S2. iPSCs from patients with BMD were used to study the potential molecular mechanisms of DMD stability within pathological context. iPSCs were maintained in feeder-free conditions using the mTeSR™1 medium (Stemcell technologies) on hESC-Qualified Matrigel (Corning) coated plates at 37 °C with 5% CO2. H19 knockout iPSC cell lines were generated using the CRISPR-Cas9 genome editing system, as described previously. iPSCs transfected with sgRNAs were selected with puromycin (250 ng/ml) for 7 days. Emerging iPSC colonies were picked individually and further expanded in mTeSR™1 medium. The presence of targeted gene knockout was confirmed by further genotyping characterization and PCR product sequencing.
For myogenic differentiation, iPSCs were differentiated into skeletal muscle cells using Skeletal Muscle Differentiation Kit (Genea Biocells) according to the manufacturer’s protocol. Briefly, iPSCs were plated onto a collagen I coated plate and maintained for 6–10 days in Skeletal Muscle Induction Medium (Genea Biocells) until confluent. Dissociated myogenic precursors were then plated on a collagen I coated plate and cultured in Skeletal Myoblast Medium (Genea Biocells) for 6–8 days. When confluent, cells were maintained in Myotube Medium or Myotube Fusion Medium (Genea Biocells). Cryopreserved stocks of myoblasts Genea002 were obtained from Genea Biocells. Genea002 was initially maintained in Skeletal Myoblast Medium and changed to Myotube Medium or Myotube Fusion Medium when confluent.

[1] = tested on: interaction between H19 and DMD; test: RIP assay in iPSC-SkMC; format: cell-based, human; settings: for interaction between H19 and DMD: iPSC-SkMC from healthy donor 09503 or BMD patient 02298; for interaction between HuR and Actin: specificity control
MRCKα = settings: cited from earlier work
Source text: (§1) SNCA plays important roles in Parkinson’s disease through mediating the aggregation of protofibrils. […] MRCKα is a se ...

SNCA = settings: cited from earlier work
Source text: as §1

[2] = target: T1, DMD C-terminus (ZnF domain) WT (human, UniProt P11532 3046-3685); test: alpha assay competition; settings: EMSA and RNA-protein binding: 50 mM Tris-HCl pH 7.9, 10% glycerol, 100 mM KCl, 5 mM MgCl2, 10 mM beta-ME, 0.1% NP-40, 30 C, 30 min (EMSA) or 1 h (dot blot) …
T1 sequence (P11532 3046-3685): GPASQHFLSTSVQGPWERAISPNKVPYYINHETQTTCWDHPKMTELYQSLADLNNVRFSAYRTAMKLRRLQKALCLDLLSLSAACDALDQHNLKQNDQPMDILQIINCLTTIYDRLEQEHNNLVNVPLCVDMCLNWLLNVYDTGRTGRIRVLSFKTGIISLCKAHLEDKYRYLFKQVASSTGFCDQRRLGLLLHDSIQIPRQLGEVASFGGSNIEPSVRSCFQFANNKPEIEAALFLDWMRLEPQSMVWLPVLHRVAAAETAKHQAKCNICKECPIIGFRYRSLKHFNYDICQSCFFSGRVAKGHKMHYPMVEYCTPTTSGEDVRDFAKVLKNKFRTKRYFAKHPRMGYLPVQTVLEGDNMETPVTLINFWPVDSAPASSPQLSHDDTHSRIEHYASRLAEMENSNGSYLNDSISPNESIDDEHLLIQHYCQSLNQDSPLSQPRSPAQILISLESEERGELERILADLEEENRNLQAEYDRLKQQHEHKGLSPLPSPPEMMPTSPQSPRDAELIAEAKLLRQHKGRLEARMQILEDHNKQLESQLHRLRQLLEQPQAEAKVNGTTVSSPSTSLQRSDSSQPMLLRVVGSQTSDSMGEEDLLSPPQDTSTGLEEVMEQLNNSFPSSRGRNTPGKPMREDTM

C57BL/6 J mice = test: RT-qPCR of H19 and Dmd in TA of treated mice; format: in vivo, mouse; settings: male mice, n = 5
Method: Total RNA was isolated from the snap-frozen samples using the RNeasy Plus Mini Kit (Qiagen). cDNA was synthesized from 1 μg of RNA using the iScript™ cDNA Synthesis Kit (Bio-Rad). Quantitative real-time PCR was performed using SsoAdvanced™ Universal SYBR® Green Supermix (Bio-Rad).

[3] = target: T1, DMD C-terminus (ZnF domain) WT; test: alpha assay saturation; settings: EMSA and RNA-protein binding: 50 mM Tris-HCl pH 7.9, 10% glycerol, 100 mM KCl, 5 mM MgCl2, 10 mM beta-ME, 0.1% NP-40, 30 C, 30 min (EMSA) or 1 h (dot blot) …
[4] = target: T1, DMD C-terminus (ZnF domain) WT; test: alpha assay competition; EMSA and RNA-protein binding: 50 mM Tris-HCl pH 7.9, 10% glycerol, 100 mM KCl, 5 mM MgCl2, 10 mM beta-ME, 0.1% NP-40, 30 C, 30 min (EMSA) or 1 h (dot blot); alpha assay conditions not in the material; settings: protein: recombinant, tags: His, label: 32P (EMSA), single strand

Question: For `O=C(Nc1cn[nH]c1-c1ccccn1)c1nn(C2CCNCC2)cc1Cl` [BDP5290], which DMD phosphorylation (iPSC-SkMC) is on record?
Answer: reduced

Question: What about the DMD protein levels (iPSC-SkMC) of the same molecule?
Answer: improved

Question: And the Ub-DMD (iPSC-SkMC)?
Answer: reduced

Question: And the “interaction between H19 and DMD” value [1]?
Answer: significantly improved

Question: And the “interaction between HuR and Actin” value [1]?
Answer: minimal effects

Question: And the IC50 (MRCKα)?
Answer: 10 nM

Question: For `N#Cc1c(C(F)(F)F)c([N+](=O)[O-])c(-c2cccc([N+](=O)[O-])c2)[nH]c1=O` [SC-D, SynuClean-D], which DMD phosphorylation (iPSC-SkMC) is on record?
Answer: reduced

Question: And the DMD protein levels (iPSC-SkMC)?
Answer: improved

Question: And the Ub-DMD (iPSC-SkMC)?
Answer: reduced

Question: What about the “phosphorylation of DMD” value (iPSC-SkMC; iPSC-SkMC with exogenous expression of SNCA) of the same molecule?
Answer: attenuated

Question: And the “interaction between H19 and DMD” value [1]?
Answer: significantly improved

Question: And the “interaction between HuR and Actin” value [1]?
Answer: minimal effects

Question: And the “SNCA aggregation in muscle tissues” value (SNCA)?
Answer: reduces

Question: Which Kd [2] does the source give for H19-WT mimic here?
Answer: 130 nM

Question: For “N-terminal-ELTNEIPAELTNEIPA-Linker-5'-[2'-F-U][2'-F-G][2'-F-G][2'-F-C][2'-F-C][2'-F-A][2'-F-A][2'-F-U][2'-F-G][2'-F-C][2'-F-C][2'-F-C][2'-F-U][2'-F-G][2'-F-G][2'-F-C][2'-F-U][2'-F-C][2'-F-A][2'-F-C][2'-F-A][2'-F-A][2'-F-A][2'-F-U][2'-F-A][2'-F-C][2'-F-C][2'-F-A][2'-F-C][2'-F-U]-3' [AGR-Scr, agrin peptide conjugated to scramble oligonucleotides; control, reference compound]”, which “expression of H19 in TA” value (C57BL/6 J mice) is on record?
Answer: minimal effects

Question: And the “expression of the Dmd transcript in TA” value (C57BL/6 J mice)?
Answer: minimal effects

Question: Which results are given for “N-terminal-ELTNEIPAELTNEIPA-Linker-5'-[2’-F-C][2’-F-U][2’-F-C][2’-F-U][2’-F-U][2’-F-A][2’-F-C][2’-F-A][2’-F-A][2’-F-U][2’-F-C][2’-F-U][2’-F-G][2’-F-A][2’-F-G][2’-F-C][2’-F-U][2’-F-U][2’-F-U][2’-F-C][2’-F-C][2’-F-A][2’-F-C][2’-F-A][2’-F-G][2’-F-U][2’-F-U][2’-F-U][2’-F-C][2’-F-C]-3' [AGR-H19-Rlof, agrin peptide conjugated to H19 RNA loss-of-function mimic]”?
Answer: expression of H19 in TA (C57BL/6 J mice): minimal effects; expression of the Dmd transcript in TA (C57BL/6 J mice): minimal effects

Question: For human H19 sense transcript, which Kd [3] is on record?
Answer: 71.1 nM

Question: For mouse H19 sense transcript, which Kd [3] is on record?
Answer: 78.6 nM

B1: hH19 1951-1980 Rgof (G1955A/G1971A) (ssRNA)
RNA: CUUUAUUUCUGAGCUUUCCUAUCUUUCCUU
Question: With B1 as the molecule, how does the Kd [4] read?
Answer: 14.9 nM

B2: hH19 1951-1980 WT (ssRNA)
RNA: CUUUGUUUCUGAGCUUUCCUGUCUUUCCUU
Question: For B2, which Kd ([4]; biotin or unlabeled (alpha assay)) is on record?
Answer: 116 nM
